Test results reported in patent publication US10487093B2, “Heterocyclic compounds, in particular 2-oxo-4,4,5,5,6,6,7,7-octahydrobenzoxazole derivatives, and their use as antibacterial compounds” (priority 2016, dated 2019).
Converted amounts (≈) assume the structure as drawn. Where two headings read alike, the source gives them in different places.

How the values were obtained:
Type in all cases: cell-based
[1] = test system: Staphylococcus aureus ATCC 29213; assay: MIC, broth microdilution (CLSI) versus planktonic bacteria; conditions: ATCC29213; Staphylococcus aureus ATCC 29213; 16-20 h; mode of three independent experiments; read-out: MIC, Sa ATCC 29213
[2] = test system: Streptococcus pneumoniae ATCC 49619; assay: as above; conditions: ATCC49619; Streptococcus pneumoniae ATCC 49619; 16-20 h; mode of three independent experiments; read-out: MIC, Sp ATCC 49619
[3] = test system: Clostridium difficile ATCC 700057; assay: MIC against anaerobes, agar dilution (CLSI), reference strain; conditions: Clostridioides difficile, ATCC700057, 48 h, read-out: MIC, C. difficile ATCC 700057
[4] = test system: Bacteroides fragilis ATCC 25285; assay: as above; conditions: ATCC25285, agar dilution, Brucella blood agar, 35° C., 48 h, anaerobic conditions, read-out: MIC, B. fragilis ATCC 25285
[5] = test system: Bacteroides thetaiotaomicron ATCC 29741; assay: microbe, parasite or virus in culture; conditions: ATCC29741, agar dilution, Brucella blood agar, 35° C., 48 h, anaerobic conditions, read-out: MIC, B. thetaiotaomicron ATCC
[6] = test system: strains of Clostridium perfringens; assay: microbe, parasite or virus in culture
[7] = test system: strains of Finegoldia magna; assay: MIC against anaerobes, agar dilution (CLSI), clinical isolates; conditions: Finegoldia magna, read-out: MIC
[8] = test system: strains of Parvimonas micra; assay: as above
[9] = test system: strains of Peptoniphilus harei; assay: as above; conditions: Peptoniphilus harei, read-out: MIC
[10] = test system: strains of Peptostreptococcus anaerobius; assay: as above
[11] = test system: strains of Propionibacterium acnes; assay: as above; conditions: Cutibacterium acnes
[12] = test system: strains of Bacteroides fragilis; assay: as above
[13] = test system: strains of Bacteroides thetaiotaomicron; assay: microbe, parasite or virus in culture
[14] = test system: strains of Prevotella bivia; assay: MIC against anaerobes, agar dilution (CLSI), clinical isolates
[15] = test system: strains of Prevotella melaninogenica; assay: as above

In the case of `COc1ccc2ncc(=O)n(CCN[C@@H]3CC[C@@H]4[C@@H](C3)OC(=O)N4c3ccc4c(n3)NC(=O)CO4)c2c1` [Compound 21, 1-(2-{[(3aR,6R,7aR)-2-oxo-3-{3-oxo-2H,3H,4H-pyrido[3,2-b][1,4]oxazin-6-yl}-octahydro-1,3-benzoxazol-6-yl]amino}ethyl)-7-methoxy-1,2-dihydroquinoxalin-2-one], the MIC [1] is reported as under 1 µg/mL, the MIC [2] is reported as 1 to 10 µg/mL (≈ 1.97 to 19.7 µM) and the MIC [3] is reported as under 1 µg/mL. The MIC [4] was under 1 µg/mL, the MIC [5] was under 1 µg/mL and the MIC ([6]; Clostridium perfringens strain 1) was under 1 µg/mL. It also gave an MIC ([6]; Clostridium perfringens strain 2) of under 1 µg/mL, an MIC ([6]; Clostridium perfringens strain 3) of under 1 µg/mL and an MIC ([6]; Clostridium perfringens strain 4) of under 1 µg/mL. It also gave an MIC ([6]; Clostridium perfringens strain 5) of under 1 µg/mL, an MIC ([6]; Clostridium perfringens strain 6) of under 1 µg/mL and an MIC ([6]; Clostridium perfringens strain 7) of under 1 µg/mL. It also gave an MIC ([6]; Clostridium perfringens strain 8) of under 1 µg/mL, an MIC ([6]; Clostridium perfringens strain 9) of under 1 µg/mL and an MIC ([6]; Clostridium perfringens strain 10) of under 1 µg/mL. For the same molecule, the MIC ([6]; Clostridium perfringens strain 11) was under 1 µg/mL, the MIC ([7]; Finegoldia magna strain 1) was under 1 µg/mL and the MIC ([7]; Finegoldia magna strain 2) was under 1 µg/mL. It also gave an MIC ([7]; Finegoldia magna strain 3) of under 1 µg/mL, an MIC ([7]; Finegoldia magna strain 4) of under 1 µg/mL and an MIC ([7]; Finegoldia magna strain 5) of under 1 µg/mL. For the same molecule, the MIC ([7]; Finegoldia magna strain 6) was under 1 µg/mL, the MIC ([7]; Finegoldia magna strain 7) was under 1 µg/mL and the MIC ([7]; Finegoldia magna strain 8) was under 1 µg/mL. It also gave an MIC ([7]; Finegoldia magna strain 9) of under 1 µg/mL, an MIC ([7]; Finegoldia magna strain 10) of under 1 µg/mL and an MIC ([7]; Finegoldia magna strain 11) of under 1 µg/mL. The MIC ([7]; Finegoldia magna strain 12) was under 1 µg/mL, the MIC ([8]; Parvimonas micra strain 1) was under 1 µg/mL and the MIC ([8]; Parvimonas micra strain 2) was under 1 µg/mL. For the same molecule, the MIC ([8]; Parvimonas micra strain 3) was under 1 µg/mL, the MIC ([8]; Parvimonas micra strain 4) was 1 to 4 µg/mL (≈ 1.97 to 7.9 µM) and the MIC ([8]; Parvimonas micra strain 5) was under 1 µg/mL. It also gave an MIC ([8]; Parvimonas micra strain 6) of under 1 µg/mL, an MIC ([8]; Parvimonas micra strain 7) of under 1 µg/mL and an MIC ([8]; Parvimonas micra strain 8) of under 1 µg/mL. For the same molecule, the MIC ([8]; Parvimonas micra strain 9) was under 1 µg/mL, the MIC ([8]; Parvimonas micra strain 10) was under 1 µg/mL and the MIC ([8]; Parvimonas micra strain 11) was under 1 µg/mL. For the same molecule, the MIC ([8]; Parvimonas micra strain 12) was under 1 µg/mL, the MIC ([9]; Peptoniphilus harei strain 1) was under 1 µg/mL and the MIC ([9]; Peptoniphilus harei strain 2) was under 1 µg/mL. It also gave an MIC ([9]; Peptoniphilus harei strain 3) of under 1 µg/mL, an MIC ([9]; Peptoniphilus harei strain 4) of under 1 µg/mL and an MIC ([9]; Peptoniphilus harei strain 5) of under 1 µg/mL. It also gave an MIC ([9]; Peptoniphilus harei strain 6) of under 1 µg/mL, an MIC ([9]; Peptoniphilus harei strain 7) of under 1 µg/mL and an MIC ([9]; Peptoniphilus harei strain 8) of under 1 µg/mL. For the same molecule, the MIC ([9]; Peptoniphilus harei strain 9) was under 1 µg/mL, the MIC ([9]; Peptoniphilus harei strain 10) was under 1 µg/mL and the MIC ([9]; Peptoniphilus harei strain 11) was under 1 µg/mL. It also gave an MIC ([9]; Peptoniphilus harei strain 12) of under 1 µg/mL, an MIC ([10]; Peptostreptococcus anaerobius strain 1) of under 1 µg/mL and an MIC ([10]; Peptostreptococcus anaerobius strain 2) of under 1 µg/mL. For the same molecule, the MIC ([10]; Peptostreptococcus anaerobius strain 3) was under 1 µg/mL, the MIC ([10]; Peptostreptococcus anaerobius strain 4) was under 1 µg/mL and the MIC ([10]; Peptostreptococcus anaerobius strain 5) was under 1 µg/mL. It also gave an MIC ([10]; Peptostreptococcus anaerobius strain 6) of under 1 µg/mL, an MIC ([10]; Peptostreptococcus anaerobius strain 7) of under 1 µg/mL and an MIC ([10]; Peptostreptococcus anaerobius strain 8) of under 1 µg/mL. It also gave an MIC ([10]; Peptostreptococcus anaerobius strain 9) of under 1 µg/mL, an MIC ([10]; Peptostreptococcus anaerobius strain 10) of under 1 µg/mL and an MIC ([11]; Propionibacterium acnes strain 1) of under 1 µg/mL. For the same molecule, the MIC ([11]; Propionibacterium acnes strain 2) was under 1 µg/mL, the MIC ([11]; Propionibacterium acnes strain 3) was under 1 µg/mL and the MIC ([11]; Propionibacterium acnes strain 4) was under 1 µg/mL. It also gave an MIC ([11]; Propionibacterium acnes strain 5) of under 1 µg/mL, an MIC ([11]; Propionibacterium acnes strain 6) of under 1 µg/mL and an MIC ([11]; Propionibacterium acnes strain 7) of under 1 µg/mL. It also gave an MIC ([11]; Propionibacterium acnes strain 8) of under 1 µg/mL, an MIC ([11]; Propionibacterium acnes strain 9) of under 1 µg/mL and an MIC ([11]; Propionibacterium acnes strain 10) of under 1 µg/mL. The MIC ([11]; Propionibacterium acnes strain 11) was under 1 µg/mL, the MIC ([11]; Propionibacterium acnes strain 12) was under 1 µg/mL and the MIC ([12]; Bacteroides fragilis strain 1) was 1 to 4 µg/mL (≈ 1.97 to 7.9 µM). For the same molecule, the MIC ([12]; Bacteroides fragilis strain 2) was under 1 µg/mL, the MIC ([12]; Bacteroides fragilis strain 3) was under 1 µg/mL and the MIC ([12]; Bacteroides fragilis strain 4) was under 1 µg/mL. It also gave an MIC ([12]; Bacteroides fragilis strain 5) of under 1 µg/mL, an MIC ([12]; Bacteroides fragilis strain 6) of under 1 µg/mL and an MIC ([12]; Bacteroides fragilis strain 7) of under 1 µg/mL. For the same molecule, the MIC ([12]; Bacteroides fragilis strain 8) was under 1 µg/mL, the MIC ([12]; Bacteroides fragilis strain 9) was under 1 µg/mL and the MIC ([12]; Bacteroides fragilis strain 10) was under 1 µg/mL. It also gave an MIC ([12]; Bacteroides fragilis strain 11) of under 1 µg/mL, an MIC ([12]; Bacteroides fragilis strain 12) of under 1 µg/mL and an MIC ([13]; Bacteroides thetaiotaomicron strain 1, read-out: MIC) of under 1 µg/mL. The MIC ([13]; Bacteroides thetaiotaomicron strain 2, read-out: MIC) was under 1 µg/mL, the MIC ([13]; Bacteroides thetaiotaomicron strain 3, read-out: MIC) was under 1 µg/mL and the MIC ([13]; Bacteroides thetaiotaomicron strain 4, read-out: MIC) was under 1 µg/mL. For the same molecule, the MIC ([13]; Bacteroides thetaiotaomicron strain 5, read-out: MIC) was under 1 µg/mL, the MIC ([13]; Bacteroides thetaiotaomicron strain 6, read-out: MIC) was under 1 µg/mL and the MIC ([13]; Bacteroides thetaiotaomicron strain 7, read-out: MIC) was under 1 µg/mL. The MIC ([13]; Bacteroides thetaiotaomicron strain 8, read-out: MIC) was under 1 µg/mL, the MIC ([13]; Bacteroides thetaiotaomicron strain 9, read-out: MIC) was under 1 µg/mL and the MIC ([13]; Bacteroides thetaiotaomicron strain 10, read-out: MIC) was under 1 µg/mL. For the same molecule, the MIC ([13]; Bacteroides thetaiotaomicron strain 11, read-out: MIC) was 1 to 4 µg/mL (≈ 1.97 to 7.9 µM), the MIC ([14]; Prevotella bivia strain 1) was under 1 µg/mL and the MIC ([14]; Prevotella bivia strain 2) was under 1 µg/mL. The MIC ([14]; Prevotella bivia strain 3) was under 1 µg/mL, the MIC ([14]; Prevotella bivia strain 4) was under 1 µg/mL and the MIC ([14]; Prevotella bivia strain 5) was under 1 µg/mL. For the same molecule, the MIC ([14]; Prevotella bivia strain 6) was under 1 µg/mL, the MIC ([14]; Prevotella bivia strain 7) was under 1 µg/mL and the MIC ([14]; Prevotella bivia strain 8) was under 1 µg/mL. The MIC ([14]; Prevotella bivia strain 9) was under 1 µg/mL, the MIC ([14]; Prevotella bivia strain 10) was under 1 µg/mL and the MIC ([15]; Prevotella melaninogenica strain 1) was under 1 µg/mL. The MIC ([15]; Prevotella melaninogenica strain 2) was under 1 µg/mL, the MIC ([15]; Prevotella melaninogenica strain 3) was under 1 µg/mL and the MIC ([15]; Prevotella melaninogenica strain 4) was under 1 µg/mL. It also gave an MIC ([15]; Prevotella melaninogenica strain 5) of under 1 µg/mL, an MIC ([15]; Prevotella melaninogenica strain 6) of under 1 µg/mL and an MIC ([15]; Prevotella melaninogenica strain 7) of under 1 µg/mL. It also gave an MIC ([15]; Prevotella melaninogenica strain 8) of under 1 µg/mL, an MIC ([15]; Prevotella melaninogenica strain 9) of under 1 µg/mL and an MIC ([15]; Prevotella melaninogenica strain 10) of under 1 µg/mL. It also gave an MIC ([15]; Prevotella melaninogenica strain 11) of under 1 µg/mL.
